Source: PubChem BioAssay (NCI)
Several values for one entry are separate records, joined by “and”; a condition that tells them apart may be missing. Equal entries are not always repeated.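 Assay format: 96-well plates, 48-hour exposure. The concentration for full growth arrest is given as TGI.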

Assays:
Assay in all cases: NCI-60 cell line screen, 48 h
[1] = test system: HOP-92 NSCLC
[2] = test system: RPMI-8226 leukemia
[3] = test system: TK-10 renal
[4] = test system: SK-OV-3 ovarian
[5] = test system: LOX IMVI melanoma
[6] = test system: NCI-H23 lung
[7] = test system: K-562 leukemia
[8] = test system: HCT-15 colon
[9] = test system: SNB-75 CNS
[10] = test system: SK-MEL-5 melanoma
[11] = test system: CAKI-1 renal
[12] = test system: SK-MEL-2 melanoma

Structure (SMILES)	TGI [1]	TGI [2]	TGI [3]	TGI [4]	TGI [5]	TGI [6]	TGI [7]	TGI [8]	TGI [9]	TGI [10]	TGI [11]	TGI [12]
COc1cccc(NCC(=O)Nn2c(-c3ccccc3)nc3ccccc3c2=O)c1	> 100 µM	> 100 µM	> 100 µM	> 100 µM	> 100 µM	> 100 µM	> 100 µM	> 100 µM	> 100 µM	> 100 µM		
Oc1cc(Cl)cc2cc(Br)cnc12	> 100 µM	47.9 µM	> 100 µM	> 100 µM		> 100 µM	> 22.6 µM	> 100 µM	> 100 µM	3.24 µM	> 27.3 µM	
OC1C(O)C(O)C(O)C(O)C1O (stereo unspecified)	> 1000 µM	> 1000 µM	> 1000 µM	> 1000 µM	> 1000 µM	> 1000 µM	> 1000 µM	> 1000 µM	> 1000 µM	> 1000 µM		> 1000 µM
O=c1ccc2ccccc2o1	> 100 µM	> 100 µM	> 100 µM	> 100 µM	> 100 µM	> 100 µM	> 100 µM	> 100 µM	> 100 µM			> 100 µM
Cc1cc(N(CCC#N)CCC#N)ccc1/C=C(\NC(=O)/C=C/c1ccccc1)NC(=O)Nc1ccc(Cl)cc1	> 100 µM	> 100 µM			> 100 µM	> 100 µM	> 100 µM	> 100 µM		> 100 µM	> 100 µM	> 100 µM
O=c1c2cc(Br)ccc2oc2nc3n(c(=O)c12)CCCS3	> 100 µM	> 100 µM	> 100 µM		> 100 µM	> 100 µM	> 100 µM	> 100 µM	> 100 µM	> 100 µM	> 100 µM	> 100 µM
CC(C)CCCC(C)[C@H]1CC[C@H]2[C@@H]3CC[C@H]4C[C@@H](CCC=C(c5cc(Cl)c(O)c(C(=O)OC(C)(C)C)c5)c5cc(Cl)c(O)c(C(=O)OC(C)(C)C)c5)CC[C@]4(C)[C@H]3CC[C@]12C (stereo partly specified)		> 50 µM		> 50 µM	> 50 µM	> 50 µM	> 50 µM	> 50 µM	> 50 µM	> 50 µM	> 50 µM	> 50 µM
C=C1CC/C=C(/C(=O)O)CC[C@H]2[C@@H]1CC2(C)C	> 100 µM	> 100 µM	> 100 µM	> 100 µM	> 100 µM	> 100 µM	> 100 µM	> 100 µM		> 100 µM	> 100 µM	> 100 µM
OCCCSc1ccccc1SCCCO	> 100 µM		> 100 µM	> 100 µM	> 100 µM	> 100 µM	> 100 µM	> 100 µM	> 100 µM	> 100 µM		
O=S(=O)(O)CCS	> 100 µM			> 100 µM	> 100 µM	> 100 µM	> 100 µM	> 100 µM	> 100 µM	> 100 µM	> 100 µM	> 100 µM
OCCSCCCSCCO	98.8 µM		> 100 µM	> 100 µM	> 100 µM	> 100 µM	> 100 µM	> 100 µM	> 100 µM	> 100 µM		
CCOC(=O)c1c(C)n(Cc2ccccc2)c2c1cc(O)c1[nH]c3c(c12)CCCC3	2.11 µM	4.97 µM	23.6 µM	24.5 µM	16.8 µM	29.9 µM	10.9 µM	13.9 µM		15 µM	24.5 µM	5.25 µM
Cc1cc2c(c3oc(C(O)(CO)C4CO4)cc(=O)c13)C(=O)c1c(O)cccc1C2=O (stereo unspecified)	0.000983 µM			0.00671 µM and 0.00173 µM				0.00152 µM	0.00395 µM and 0.000596 µM		0.0036 µM	0.00415 µM
CN(C)C(=O)CC(C(=O)O)c1c[nH]c2ccccc12 (stereo unspecified)		> 100 µM	> 100 µM		> 100 µM	> 100 µM	> 100 µM	> 100 µM	> 100 µM	> 100 µM	> 100 µM	> 100 µM
C#CC(O)/C=C/CCCCCCC#CC/C=C\CC#CCCCCCC/C=C/C(O)C#C (stereo unspecified)	5.57 µM		11 µM	32.1 µM	0.0282 µM	3.53 µM	9.67 µM	6.94 µM	20.9 µM	3.14 µM	5.98 µM	6.8 µM
COC(=O)C1OC(O[C@H]2CC[C@]3(C)[C@H]4CC=C5[C@@H]6CC(C)(C)CC[C@]6(C(=O)OC)[C@H](O)C[C@@]5(C)[C@]4(C)CC[C@H]3C2(C)C)C(O)C(O)C1O (stereo partly specified)	30.5 µM	27.4 µM		28.2 µM	17.1 µM	18.9 µM	15 µM	22.2 µM	28.1 µM	26.2 µM	27.2 µM	28.7 µM
COc1ccc(CNc2nc(NCc3ccc(OC)cc3)nc(Nc3ccccc3)n2)cc1	> 100 µM	40.3 µM	> 100 µM	> 100 µM		78.5 µM	> 100 µM	13.5 µM	> 100 µM	> 100 µM	10.4 µM	> 100 µM
CCCCCCOc1ccc(NC2=C(Cl)C(=O)c3cccnc3C2=O)cc1	3.53 µM	2.53 µM	9.49 µM	> 10 µM	2.81 µM	3.7 µM	> 10 µM	3.96 µM	2.79 µM	2.31 µM		4.43 µM
CC(C)(C)NC(NC(C)(C)C)=C(C(Cl)=C(Cl)Cl)[N+](=O)[O-]		> 100 µM	> 100 µM	> 100 µM	> 100 µM	> 100 µM	> 100 µM	> 100 µM	> 100 µM	> 100 µM	> 100 µM	
Cn1c(C(C#N)c2cc(Cl)ncn2)nc2ccccc21 (stereo unspecified)	> 100 µM	> 100 µM	> 100 µM	> 100 µM	> 100 µM	> 100 µM		> 100 µM	> 100 µM	> 100 µM	> 100 µM	
CC(=O)Oc1ccn2nc(C)c(Br)c2c1Br	36.7 µM		> 94.8 µM		36 µM	34.8 µM	50.1 µM	33.6 µM	> 56.2 µM	31.7 µM	21.7 µM	> 67 µM
